Assay [1] deals with T1, Cps4B (Streptococcus pneumoniae, UniProt Q9AHD4). Put plainly: absorbance at […] nm. Further details: gene cpsB; recombinant, produced as described earlier; PHP-fold metal-dependent phosphatase with three active-site metals; 1 molecule per asymmetric unit. The note with it: 25 mM Tris-Cl pH 8.0, 50 mM NaCl, 2.5 mM pNPP, room temperature; 0.5 mM Cu2+, Co2+ or Mn2+ added. The class given is biochemical.

The target in assay [2] is T1, Cps4B. Further details: gene cpsB. Conditions: active site, bound to three metals, Arg139 and Arg206; soak up to 50 mM phosphate.

T1 sequence (Q9AHD4 whole entry, looked up): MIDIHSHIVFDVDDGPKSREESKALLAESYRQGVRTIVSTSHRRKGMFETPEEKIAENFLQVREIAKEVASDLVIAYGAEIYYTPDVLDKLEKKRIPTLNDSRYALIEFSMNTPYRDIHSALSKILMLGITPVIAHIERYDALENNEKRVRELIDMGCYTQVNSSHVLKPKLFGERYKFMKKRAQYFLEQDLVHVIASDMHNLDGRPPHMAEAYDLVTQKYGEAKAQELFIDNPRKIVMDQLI

Turning to `O=[N+]([O-])c1ccc(OP(=O)(O)O)cc1` [para-nitrophenylphosphate], the “absorbance at 405 nm” value in assay [1] is recorded as “it is a relatively poor catalyst with artificial substrate para-nitrophenylphosphate (pNPP)”.

With `O=P(O)(O)O` [phosphate], the “X-ray crystal structure, 2.2 A, phosphate soak” value in assay [2] is on record as “The phosphate is tightly bound to the active site by a multitude of interactions”.
